# Literature values as cited in patent US4196187A, “Rumen-stable pellets” (Eastman Kodak Company, priority 1977, dated 1980).
# Key:
# [1] = Example 1
Solubility g./100 g. water at 25° C.,"soluble to the extent of (25° C., water)",acidity of a saturated solution (pH) [1],SMILES
4.0 g./100 g. water,–,–,CSCCC(N)C(=O)O (racemic) [DL - Methionone]
–,about 70 g./100 g. of water,5.5,Cl.NCCCC[C@H](N)C(=O)O [L-Lysine monohydrochloride]
